# According to US20240299360A1, “ADAMTS INHIBITORS, PREPARATION METHODS AND MEDICINAL USES THEREOF” (Jiangsu Hengrui Pharmaceuticals Co., Ltd., priority 2020, published 2024):
# How the values were obtained:
# Format in all cases: biochemical
# [1] = molecular target: T1, ADAMTS-5 recombinant protein (Homo sapiens (Human), UniProt Q9UNA0); test: In vitro fluorescence (FRET-peptide) enzymatic assay of ADAMTS-5 activity; details: FRET peptide substrate 8 μM, 10 nM enzyme, 37° C. 3 hours
# Description: (§1) A FRET (fluorescence resonance energy transfer) peptide was cleaved by recombinant ADAMTS-4 or ADAMTS-5 proteins into two separate fragments resulting in an increase of fluorescence signal which was quantified. The peptide was 5-FAM-[…](5-TAMRA)K-NH2, customized from ANASPEC. ADAMTS-4 recombinant protein (catalog #4307-AD) and ADAMTS-5 recombinant protein (catalog #2198-AD) were purchased from R&D Systems.
# (§2) An assay buffer containing 50 mM HEPES pH 7.5, 100 mM NaCl, 5 mM CaCl2, 0.1% CHAPS and 5% Glycerol was prepared. A volume of 2.5 μl of compound in the assay buffer was dispensed to a 384-well plate, and 2.5 μl of ADAMTS-4 or ADAMTS-5 protein (final concentration in the reaction was 10 nM) was added. The compounds and proteins were pre-incubated at room temperature for 15 minutes. Then, 5 μl of substrate was added to each well. The final substrate concentrations for ADAMTS-4 and ADAMTS-5 were 15 μM and 8 μM, respectively. The fluorescence signal in each well was determined, after incubation at 37° C. for 3 hours, on a TECAN plate reader (Excitation, 490 nm; Emission, 520 nm).
# (§3) The data was inputted into GraphPad Prism, and the IC50 values were calculated using function “log (inhibitor) vs. response—Variable slope (four parameters)”. (See Table 1)
# [2] = molecular target: ADAMTS-4 recombinant protein (Homo sapiens (Human), UniProt O75173); test: In vitro fluorescence (FRET-peptide) enzymatic assay of ADAMTS-4 activity; details: FRET peptide substrate 15 μM, 10 nM enzyme, 37° C. 3 hours
# Description: as §1, §2, §3
# [3] = molecular target: T1, ADAMTS-5 recombinant protein; test: In vitro ELISA of ADAMTS-5 activity (Aggrecan-IGD enzymatic assay); details: aggrecan-IGD substrate, ARGSVIL-peptide ELISA, 37° C. 45 minutes
# Description: In this assay, the enzymatic activity of recombinant ADAMTS-5 protein (catalog #2198-AD, R&D Systems) was assayed with a protein substrate, the aggrecan IGD protein. The aggrecan IGD protein is a polypeptide connecting human aggrecan globular domains 1 and 2 (T331-G458) expressed in E. Coli with a C-terminal His-tag (catalog #30411000, BIOTEZ). The enzymatic product ARGSVIL-peptide was detected using an ELISA kit from BioTEZ (catalog #30510111).
# An assay buffer containing 50 mM HEPES pH 7.5, 100 mM NaCl, 5 mM CaCl2), 0.1% CHAPS and 5% Glycerol was prepared. Recombinant ADAMTS-5 protein was diluted to 0.3 nM in the assay buffer. Ten μl of […] and 10 μl of compound solution was transferred to each well of a 96-well plate and incubated at room temperature for 15 minutes. Substrate aggrecan-IGD was diluted to 100 nM with the assay buffer and 20 μl was added to each well. The plate was incubated at 37° C. for 45 minutes. After incubation, the newly generated epitope ARGSVIL-peptides were measured using the Aggrecanase Activity ELISA Assay Kit following the manufacturer's instructions. Then, 100 μl of stop solution was added and the absorbance of each well was read at 450 nm, using […] as reference on a TECAN plate reader.
# A standard curve of the ELISA assay was generated in GraphPad Prism using Sigmoidal 4PL function and the corresponding peptide concentrations were calculated based on the standard curve. The IC50 values were calculated using function “log (inhibitor) vs. response—Variable slope (four parameters)”. (See Table 2).
# ADAMTS-4 recombinant protein, sequence (O75173 213-685): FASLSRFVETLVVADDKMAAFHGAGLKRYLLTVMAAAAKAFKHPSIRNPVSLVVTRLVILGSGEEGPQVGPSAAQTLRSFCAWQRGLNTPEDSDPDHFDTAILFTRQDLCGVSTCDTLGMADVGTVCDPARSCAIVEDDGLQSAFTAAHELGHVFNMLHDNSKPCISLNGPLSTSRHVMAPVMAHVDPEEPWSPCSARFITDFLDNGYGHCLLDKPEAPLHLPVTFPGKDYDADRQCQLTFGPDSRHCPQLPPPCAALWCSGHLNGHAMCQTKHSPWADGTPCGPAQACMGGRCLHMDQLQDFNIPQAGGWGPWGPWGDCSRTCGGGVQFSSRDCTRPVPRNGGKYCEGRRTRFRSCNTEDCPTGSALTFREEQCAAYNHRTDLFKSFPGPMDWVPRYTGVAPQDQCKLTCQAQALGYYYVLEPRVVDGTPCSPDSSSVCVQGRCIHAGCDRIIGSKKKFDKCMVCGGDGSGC
# T1 sequence (Q9UNA0 262-622): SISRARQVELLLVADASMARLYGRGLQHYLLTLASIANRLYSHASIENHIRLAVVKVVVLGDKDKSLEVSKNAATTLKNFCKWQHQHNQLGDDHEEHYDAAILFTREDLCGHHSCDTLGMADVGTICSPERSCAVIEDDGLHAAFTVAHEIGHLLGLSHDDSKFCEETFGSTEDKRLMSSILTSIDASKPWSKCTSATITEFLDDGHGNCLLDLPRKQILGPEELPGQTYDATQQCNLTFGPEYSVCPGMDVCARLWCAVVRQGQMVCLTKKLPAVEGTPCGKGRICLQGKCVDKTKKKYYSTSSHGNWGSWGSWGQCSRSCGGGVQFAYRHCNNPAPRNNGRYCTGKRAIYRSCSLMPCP
IC50 [1] [nM],IC50 [2] [nM],IC50 [3] [nM],SMILES
410,110,560,"O=C1NC(=O)[C@](CCC(=O)N2Cc3ccccc3C2)(C2CC2)N1 [Example 11, (S)-5-cyclopropyl-5-(3-(isoindolin-2-yl)-3-oxopropyl)imidazolidine-2,4-dione]"
61,51,140,"CC1CN(C(=O)CC[C@@]2(C3CC3)NC(=O)NC2=O)CCc2ccc(F)cc21 (stereo partly drawn) [Example 22, (5S)-5-cyclopropyl-5-(3-(8-fluoro-1-methyl-1,2,4,5-tetrahydro-3H-benzo[d]azepin-3-y1)-3-oxopropyl)imidazolidine-2,4-dione]"
360,120,840,"COc1ccc2c(c1)CN(C(=O)CC[C@@]1(C3CC3)NC(=O)NC1=O)C2 [Example 24, (S)-5-cyclopropyl-5-(3-(5-methoxyisoindolin-2-yl)-3-oxopropyl)imidazolidine-2,4-dione]"
22,14,56,"CC(C[C@@]1(C2CC2)NC(=O)NC1=O)C(=O)N1Cc2ccc(C(F)(F)F)cc2C1 (stereo partly drawn) [Example 29, (5S)-5-cyclopropyl-5-(2-methyl-3-oxo-3-(5-(trifluoromethyl)isoindolin-2-yl)propyl)imidazolidine-2,4-dione]"
110,230,170,"COc1cc2c(cc1Cl)CN(C(=O)CC[C@@]1(C3CC3)NC(=O)NC1=O)C2 [Example 35, (S)-5-(3-(5-chloro-6-methoxyisoindolin-2-yl)-3-oxopropyl)-5-cyclopropylimidazolidine-2,4-dione]"
15,21,36,"COc1cc2c(cc1Cl)CN(C(=O)C(C)C[C@@]1(C3CC3)NC(=O)NC1=O)C2 (stereo partly drawn) [Example 36-1, (5S)-5-(3-(5-chloro-6-methoxyisoindolin-2-yl)-2-methyl-3-oxopropyl)-5-cyclopropylimidazolidine-2,4-dione]"
13,5,16,"CC1CN(C(=O)CC[C@@]2(C3CC3)NC(=O)NC2=O)CCc2cc(Cl)c(Cl)cc21 (stereo partly drawn) [Example 37, (S)-5-cyclopropyl-5-(3-(7,8-dichloro-1-methyl-1,2,4,5-tetrahydro-3H-benzo [d]azepin-3-yl)-3-oxopropyl)imidazolidine-2,4-dione]"
31,62,29,"CC1CN(C(=O)CC[C@@]2(C3CC3)NC(=O)NC2=O)CCc2ccc(Cl)c(Cl)c21 (stereo partly drawn) [Example 38, (S)-5-cyclopropyl-5-(3-(8,9-dichloro-1-methyl-1,2,4,5-tetrahydro-3H-benzo [d]azepin-3-yl)-3-oxopropyl)imidazolidine-2,4-dione]"
62,110,65,"O=C1NC(=O)[C@](CCC(=O)N2Cc3cc(F)c(C(F)(F)F)cc3C2)(C2CC2)N1 [Example 39, (S)-5-cyclopropyl-5-(3-(5-fluoro-6-(trifluoromethyl)isoindolin-2-yl)-3-oxopropyl)imidazolidine-2,4-dione]"
21,36,18,"CC1c2cc(C(F)(F)F)c(Cl)cc2CN1C(=O)CC[C@@]1(C2CC2)NC(=O)NC1=O (stereo partly drawn) [Example 41, (5S)-5-(3-(5-chloro-1-methyl-6-(trifluoromethyl)isoindolin-2-yl)-3-oxopropyl)-5-cyclopropylimidazolidine-2,4-dione]"
20,15,55,"CC(C)C(C[C@@]1(C2CC2)NC(=O)NC1=O)C(=O)N1Cc2ccc(C(F)(F)F)cc2C1 (stereo partly drawn) [Example 49-2, (5S)-5-cyclopropyl-5-(3-methyl-2-(5-(trifluoromethyl)isoindoline-2-carbonyl)butyl)imidazolidine-2,4-dione]"
110,11,200,"Nc1cc2c(cc1Cl)CN(C(=O)CC[C@@]1(C3CC3)NC(=O)NC1=O)C2 [Example 54, (S)-5-(3-(5-amino-6-chloroisoindolin-2-yl)-3-oxopropyl)-5-cyclopropylimidazolidine-2,4-dione]"
